These are literature values, as cited in PMC5988656, “Phase I studies of AZD1208, a proviral integration Moloney virus kinase inhibitor in solid and haematological cancers” (British Journal of Cancer, 2018).

In series [1] the test system is relapsed/refractory multiple myeloma (RRMM). The following applies: in vivo; cited from earlier work.
The subject of series [2] is refractory prostate cancer and relapsed/refractory non-Hodgkin lymphoma. Also noted: method as in ClinicalTrials.gov, NCT00848601. Particulars: ref ClinicalTrials.gov, NCT00848601; cited from earlier work.

Consider `C[C@@H]1C[C@H](N)C[C@H](c2ccncc2NC(=O)c2ccc(F)c(-c3c(F)cccc3F)n2)C1` [LGH447], for which, in series [1], the DLT fatigue is given as 2 n, the DLT hypophosphatemia was 1 n, the DLT thrombocytopenia is 4 n and the DLT vasovagal syncope is 1 n. Further, the DLTs entry in series [1] is recorded as “eight”.

In the case of `CN1CCC(CNc2ccc3ncc(-c4cccc(OC(F)(F)F)c4)n3n2)CC1` [SGI-1776], the “Outcome of clinical development” value in series [2] is reported as “discontinued because of QTc prolongation”.
